Type in all cases: cell-based, human
Test [1] has as its system NF-kB. The test is described as follows: NF-kB p50 and p65 subunit activity ELISA, LPS-stimulated neutrophils. The settings on record: 1 µg/mL LPS 15 minutes, both concentrations, p=0.03 vs LPS alone. The procedure: (§1) Blood was drawn from 2 healthy volunteers into tubes containing citrate as an anticoagulant. Neutrophils were isolated by using a Polymorphprep kit (Nicomed, Oslo, Norway) according to the manufacturer's instructions. The purity of the cells, as assessed by flow cytometry (anti-CD45, 14, DR, and CD66b), was > 93%.
[…] At the end of the incubation period, the cells were put on ice, and nuclear proteins were extracted using Nuclear Extraction Kit (Cayman chemicals, Ann Harbor, USA), according to the recommendations of the manufacturer. The total protein concentration was measured using a conventional Lowry assay (Pierce).
P50 and p65 NF-kB subunit activity was determined by ELISA (Cayman chemicals). This assay allows the determination of the true NF-kB activity by measuring the binding of its subunits to specific consensus sequences. This assay is similar to the traditional EMSA, though more sensitive. 10 µg of proteins were used per assay. Analysis was performed in duplicate.
On the technique in general: ELISA stands for enzyme-linked immunosorbent assay.

Test [2] deals with neutrophils. The test is described as follows: LPS-driven cytokine production by neutrophils. The settings on record: 1 µg/mL LPS 24 hours, both concentrations (20 or 50 ng/mL), p=0.01 versus LPS. As to the method:
as §1
5x10^5 cells were incubated in the presence of 1 µg/mL LPS (E.coli O111:B4, Sigma-Aldrich) or pre-stimulated with 20 or 50 ng/mL of EA-230 (peptide AQGV) and then incubated in the presence of 1 µg/mL LPS for 24 hours (37°C, 5% CO2). At the end of the incubation period, supernatants were harvested and concentrations of TNF-α, IL-6, and IL-8 were measured by flow cytometry using Bender Flowcytomics kit (Bender Med systems, Burlingame, USA) according to the recommendations of the manufacturer. Concentrations of IL-10 were determined by ELISA (RnD Systems). Measurements were done in duplicate.

In test [3] the test system is TLR-4. Briefly: PKB phosphorylation in hPBMC challenged with LPS (Example 4). The conditions noted are these: 2 µg/ml LPS. The procedure:
(§2) Subsequently PMBC were incubated with 1.3, 3.2, 8, 20 and 50 ng/ml peptide AQGV , LQGV, AQG, LQG, QGV, AQ, LQ, GV or QG (peptide, which was freshly prepared as a 20 mg/ml stock solution in bidistilled water) or treated with the cell culture medium alone for 10 min.
(§3) hPMBC were challenged with 2 µg/ml TLR-4 ligand LPS for 1 min, 5 min, 10 min and 20 min.

The test system of test [4] is monocytes. The test is described as follows: Phosphoprotein array, LPS-stimulated monocytes. The settings on record: 1 µg/mL LPS, pre-incubation with 20 ng/mL. The procedure: (§4) Blood was drawn from healthy volunteers into tubes containing citrate as an anticoagulant. Neutrophils were isolated by using a Polymorphprep kit (Nicomed, Oslo, Norway) according to the manufacturer's instructions; monocytes were purified with magnetic beads (Miltenyi Biotech). The purity of the cells, as assessed by flow cytometry (anti-CD45, 14, DR, and CD66b), was > 93%. For each cell type, samples from two different donors were examined.
(§5) 5x10^6 cells were incubated in the presence of 1 µg/mL LPS (E.coli O111:B4, Sigma-Aldrich) or pre-stimulated with 20 ng/mL of EA-230 (peptide AQGV) and then incubated in the presence of 1 µg/mL LPS for 0, 5, 15 and 30 minutes (37°C, 5% CO2). At the end of the incubation period, the cells were put on ice, and proteins were extracted using Phosphosafe reagent (Novagen), according to the recommendations of the manufacturer. The total protein concentration was measured using a conventional Lowry assay (Pierce).
(§6) To determine the relative levels of protein phosphorylation, a human PhosphoKinase array (RnD Systems) was used according to the recommendations of the manufacturer. 200 µg of protein were used per array. Spot pixel density was determined for each protein and ratios to the controls (no LPS and no EA stimulation) were measured.

Test [5] deals with NOD. Briefly: Kinase phosphorylation in PBMC-derived monocytes challenged with NOD ligand peptidoglycan. The settings on record: 2 µg/ml PGN, at 50 ng/ml. The procedure:
(§7) PMBC-derived monocytes were isolated from healthy volunteers (hPBMCs) according to routine procedures^1. […]
(§8) Following stimulation, the phosphorylation status of p38MAPK, JNK, PKB, and P42/p44MAPK/ERK1,2 was analysed^3. Results were corrected for differences using co-measurement of β-actin^4.

Test [6] has as its system TLR-4. The test is described as follows: Kinase phosphorylation in PBMC-derived monocytes challenged with TLR-4 ligand LPS. The conditions noted are these: 2 µg/ml LPS, at 20 ng/ml and at 50 ng/ml. The procedure:
as §7, §8

Test [7] concerns FPR. The test is described as follows: Kinase phosphorylation in PBMC-derived monocytes challenged with fMLP. The settings on record: 1 µM fmlp, at both 20 ng/ml and 50 ng/ml. The procedure: PMBC-derived monocytes were isolated from healthy volunteers (hPBMCs) according to routine procedures^1. Subsequently PMBC were incubated with 20 ng/ml peptide AQGV (Biotempt peptide, which was freshly prepared as a 20 mg/ml stock solution in bidistilled water) or treated with the cell culture medium alone for 10 min. hPMBC were challenged with: • 1) 2 µg/ml TLR-4 ligand LPS ^2 for 1 min, 5 min, 10 min and 20 min, • 2) 2 µg/ml NOD ligand peptidoglycan (PGN) for 1 min, 5 min, 10 min and 20 min, or • 3) 1 µM fmlp (formyl-Met-Leu-Phe) for 1 min, 5 min, 10 min and 20 min.
as §8

Test [8] concerns TLR-4. The test is described as follows: p38 MAPK phosphorylation in hPBMC challenged with LPS (Example 4). The conditions noted are these: 2 µg/ml LPS; for p38 MAPK phosphorylation: low concentrations of peptide, compared to control (LPS stimulated, no peptide added); for TLR-4 mediated signalling induced by LPS, p38 MAPK phosphorylation status: peptide at 20 ng/ml. The procedure: as §2, §3

Test [9] relates to neutrophils. Briefly: Phosphoprotein array, LPS-stimulated neutrophils. The settings on record: 1 µg/mL LPS, pre-stimulated with 20 ng/mL. As to the method: as §4, §5, §6
Setting [10] is: low concentrations, i.e. below 20 ng/ml, compared to control (LPS stimulated, no peptide added).

“Also recorded” adds a separate entry of the source. Where a SMILES comes first, the peptide text is derived from it.

The results in this text go back to patent EP2490021A1, “Modulators of PRR and GPCR signalling” (Biotempt B.V., priority 2011, dated 2012).

For the compound `CC(C)[C@H](NC(=O)CNC(=O)[C@H](CCC(N)=O)NC(=O)[C@H](C)N)C(=O)O` [AQGV] (H-AQGV-OH), in test [1], the “LPS induced NF-kB p50 activity” value is given as “reduced this LPS induced activation” and the “LPS induced NF-kB p65 activity” value was “reduced this LPS induced activation”. Also, in test [2], the “LPS induced production of IL-6” value is on record as “reduced the cytokine production almost to control values”, the “LPS induced production of IL-8” value is given as “reduced the cytokine production almost to control values”, the “LPS induced production of IL-10” value is listed as “reduced the cytokine production almost to control values” and the “LPS induced production of TNF-α” value is “reduced the cytokine production almost to control values”. The “TLR-4 mediated signalling induced by LPS, PKB phosphorylation status” value in test [3] (setting [10]) was “already display a modulation”. Moreover, in [3] (peptide at 20 ng/ml), the “TLR-4 mediated signalling induced by LPS, PKB phosphorylation status” value was “reduced”. Also, the eNOS phosphorylation entry in test [4] is reported as “strongly stimulated”. In test [4] (at 15 minutes), the “LPS-driven phosphorylation of AMPK” value is “prevented this effect”, the “LPS-driven phosphorylation of ERK1/2” value is “prevented this effect”, the “LPS-driven phosphorylation of JNK” value is given as “prevented this effect” and the “LPS-driven phosphorylation of MSK” value is reported as “prevented this effect”. Further, in test [4] (at 15 minutes), the “LPS-driven phosphorylation of P38 MAPK” value was “prevented this effect” and the “LPS-driven phosphorylation of PKB/AKT” value was “prevented this effect”. Further, in [5], the “NOD-signalling induced by peptidoglycan, JNK phosphorylation status” value was “seemingly stimulates”; the “NOD-signalling induced by peptidoglycan, P42/p44MAPK/ERK1,2 phosphorylation status” value is given as “seemingly stimulates”; the “NOD-signalling induced by peptidoglycan, PKB phosphorylation status” value was “seemingly stimulates”; the “NOD-signalling induced by peptidoglycan, p38MAPK phosphorylation status” value is given as “seemingly stimulates”. Further, in [6], the “TLR-4 mediated signalling induced by LPS, JNK phosphorylation status” value was “reduced”; the “TLR-4 mediated signalling induced by LPS, P42/p44MAPK/ERK1,2 phosphorylation status” value was “reduced”; the “TLR-4 mediated signalling induced by LPS, PKB phosphorylation status” value is “reduced”; the “TLR-4 mediated signalling induced by LPS, p38MAPK phosphorylation status” value was “reduced”. In test [7], the “FPR signalling induced by fMLP” value is on record as “slightly attenuated”; the “FPR signalling induced by fMLP, PKB phosphorylation” value was “induction of PKB phosphorylation was initially seen, followed by downregulation”; the “FPR signalling induced by fMLP, p38MAPK phosphorylation” value is “downregulation”. In addition, in [8], the “p38 MAPK phosphorylation” value is reported as “already modulated” and the “TLR-4 mediated signalling induced by LPS, p38 MAPK phosphorylation status” value was “initial downregulation”. Further, the eNOS phosphorylation result in test [9] was “increase”. In addition, in [9] (at 15 minutes), the “LPS-driven phosphorylation of CREB” value was “blunted”, the “LPS-driven phosphorylation of ERK1/2” value is recorded as “blunted”, the “LPS-driven phosphorylation of GSK 3a/b” value is reported as “blunted” and the “LPS-driven phosphorylation of MEK1/2” value is “blunted”. In addition, the “LPS-driven phosphorylation of P38 MAPK” value in [9] (at 15 minutes) is listed as “blunted”.
For `C[C@H](N)C(=O)N[C@@H](CCC(N)=O)C(=O)O` [AQ] (H-Ala-Gln-OH), the “TLR-4 mediated signalling induced by LPS, PKB phosphorylation status” value in [3] (setting [10]) is recorded as “already display a modulation”; in [3] (peptide at 20 ng/ml), “inhibited”. The “p38 MAPK phosphorylation” value in [8] is “already modulated”. The “TLR-4 mediated signalling induced by LPS, p38 MAPK phosphorylation status” value in [8] is reported as “slight overall downregulation”.
For the compound `CC(C)C[C@H](N)C(=O)N[C@@H](CCC(N)=O)C(=O)NCC(=O)N[C@H](C(=O)O)C(C)C` [LQGV] (H-LQGV-OH), in test [3] (peptide at 20 ng/ml), the “TLR-4 mediated signalling induced by LPS, PKB phosphorylation status” value is recorded as “reduced; also recorded: significantly downregulated”. Moreover, in [8], the “p38 MAPK phosphorylation” value is “already modulated” and the “TLR-4 mediated signalling induced by LPS, p38 MAPK phosphorylation status” value is recorded as “initial downregulation”.
Regarding `CC(C)C[C@H](N)C(=O)N[C@@H](CCC(N)=O)C(=O)NCC(=O)O` [LQG] (H-Leu-Gln-Gly-OH), in test [8], the “p38 MAPK phosphorylation” value is recorded as “already modulated” and the “TLR-4 mediated signalling induced by LPS, p38 MAPK phosphorylation status” value is “initial downregulation”.
As for `CC(C)C[C@H](N)C(=O)N[C@@H](CCC(N)=O)C(=O)O` [LQ] (H-Leu-Gln-OH), the “TLR-4 mediated signalling induced by LPS, PKB phosphorylation status” value was “already display a modulation” in [3] (setting [10]) and “inhibited” in test [3] (peptide at 20 ng/ml).
For the compound `CC(C)[C@H](NC(=O)CNC(=O)[C@@H](N)CCC(N)=O)C(=O)O` [QGV] (H-Gln-Gly-Val-OH), the “TLR-4 mediated signalling induced by LPS, PKB phosphorylation status” value in [3] (setting [10]) is on record as “already display a modulation”; in [3] (peptide at 20 ng/ml), “at least initial, inhibition”. The “p38 MAPK phosphorylation” value in test [8] is recorded as “already modulated”.
As for `NC(=O)CC[C@H](N)C(=O)NCC(=O)O` [QG] (H-Gln-Gly-OH), in test [8], the “p38 MAPK phosphorylation” value was “already modulated” and the “TLR-4 mediated signalling induced by LPS, p38 MAPK phosphorylation status” value was “slight upregulation”.
